The record followed here is BindingDB's records for doi:10.7270/Q2H993J6 (Pcmd, 2008).

By IC50 is commonly meant the concentration that gives 50% inhibition. A lower IC50 goes with greater potency in that assay.

The test addresses Coagulation factor XI (Homo sapiens, UniProt P03951). The experiment in a line: FXIa inhibitor IC50 values, dose response, biochemical, hits from 1536-well screen (AID 846). Particulars: pH 7.4; 23 °C.

*1 amine or outer side, *2 acyl side, *3 side chain or, on linkers, in order; H or OH if unused. Where a SMILES comes first, the peptide text is derived from it. CO = O=C([*:1])[*:2]

Chain of Coagulation factor XI (P03951 19-387 limits assumed): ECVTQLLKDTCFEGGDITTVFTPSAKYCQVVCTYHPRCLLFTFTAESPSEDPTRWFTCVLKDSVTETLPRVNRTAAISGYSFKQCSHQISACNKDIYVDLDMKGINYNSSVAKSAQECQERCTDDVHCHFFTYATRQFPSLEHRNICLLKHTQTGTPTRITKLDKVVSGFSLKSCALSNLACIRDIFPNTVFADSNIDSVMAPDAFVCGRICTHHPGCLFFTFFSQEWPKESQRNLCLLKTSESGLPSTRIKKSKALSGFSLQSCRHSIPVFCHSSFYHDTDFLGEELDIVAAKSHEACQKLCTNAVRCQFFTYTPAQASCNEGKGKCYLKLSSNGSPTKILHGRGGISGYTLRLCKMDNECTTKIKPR
Chain of Coagulation factor XI (P03951 388-625 limits assumed): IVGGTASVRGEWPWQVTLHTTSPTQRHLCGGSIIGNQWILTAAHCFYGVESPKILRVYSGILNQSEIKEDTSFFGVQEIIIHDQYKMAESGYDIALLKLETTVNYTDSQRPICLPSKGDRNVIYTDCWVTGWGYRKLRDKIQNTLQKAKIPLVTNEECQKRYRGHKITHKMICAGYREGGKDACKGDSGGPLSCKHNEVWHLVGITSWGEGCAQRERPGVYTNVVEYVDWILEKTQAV

For `O=C(COC(=O)CCc1nc2ccccc2c(=O)[nH]1)Nc1ccc(Cl)cn1` [[2-[(5-chloropyridin-2-yl)amino]-2-oxoethyl] 3-(4-oxo-1H-quinazolin-2-yl)propanoate], the IC50 was over 50 µM. On to `O=C(NC1CCCC1)C(c1ccccn1)N(C(=O)c1csnn1)C1CC1` (stereo not drawn) [N-[2-(cyclopentylamino)-2-oxo-1-(2-pyridinyl)ethyl]-N-cyclopropyl-4-thiadiazolecarboxamide], for which the IC50 is over 50 µM. As to `NC[C@H](O)c1ccc(O)cc1` [SMR000058358], the IC50 was over 50 µM. With `Oc1cc(N2CCC(c3nc4ccccc4o3)CC2)c(O)n1-c1ccc(Cl)c(C(F)(F)F)c1` [3-[4-(1,3-benzoxazol-2-yl)piperidin-1-yl]-1-[4-chloranyl-3-(trifluoromethyl)phenyl]pyrrolidine-2,5-dione] the figure was over 50 µM. `Cc1nnc(SCCn2c(Br)nc3c2c(=O)[nH]c(=O)n3C)s1` gave an IC50 of over 50 µM. `Oc1cc(Sc2ccc(Cl)cc2)c(O)n1-c1ccc2c(c1)OCCO2` returned an IC50 of over 50 µM.

In the case of `CC1=NN(C(C#N)c2ccc([N+](=O)[O-])cc2)C(C)(C)C1` (stereo not drawn) [MLS001049177], the half-maximal inhibitory concentration (IC50) was over 50 µM. On to `COc1ccc(CN(Cc2ccc(OC)cc2)C(=O)c2cccs2)cc1` [MLS000860276], for which the IC50 is over 50 µM. With `CC(C)c1csc(CN2CCCC(CCC(=O)NCc3ccccc3F)C2)n1` (stereo not drawn) [N-[(2-fluorophenyl)methyl]-3-[1-[(4-propan-2-yl-1,3-thiazol-2-yl)methyl]piperidin-3-yl]propanamide] the figure was over 50 µM. `CC(C)NC(=O)CSc1nc(-c2ccccc2)cs1` [2-[(4-phenyl-1,3-thiazol-2-yl)sulfanyl]-N-propan-2-yl-ethanamide] returned an IC50 of over 50 µM. `CCOc1ccc(NC(=O)CN2C(=O)/C(=C3\SC(=S)N(C4CCS(=O)(=O)C4)C3=O)c3ccccc32)cc1` (stereo not drawn) [2-[(3Z)-3-[3-[1,1-bis(oxidanylidene)thiolan-3-yl]-4-oxidanylidene-2-sulfanylidene-1,3-thiazolidin-5-ylidene]-2-oxidanylidene-indol-1-yl]-N-(4-ethoxyphenyl)ethanamide;ethanoic acid] had an IC50 of over 50 µM. With `Cc1cccc(NC(=O)c2cc(-n3c(O)ccc3O)ccc2Cl)n1`, the IC50 is over 50 µM. For the molecule `CCn1nc(CC(=O)O)c2ccccc2c1=O` [2-(3-ethyl-4-oxidanylidene-phthalazin-1-yl)ethanoic acid], the IC50 is over 50 µM. Next, `O=C1NN(c2ccccc2)C(=O)/C1=C\c1cccc(OC(=O)c2cccs2)c1` [MLS000534153]: over 50 µM; `CN1C(=O)C(=NOC(=O)c2ccccc2)c2ccccc21` [MLS000556117]: 25.9 µM. With `Cc1cc(C(=O)Cn2nc(C(=O)O)c3ccccc3c2=O)c(C)n1-c1cccc(C(F)(F)F)c1` the figure was over 50 µM; with `CCOC(=O)COc1cc(O)c2c(=O)cc(-c3ccccc3)oc2c1` [2-[(5-hydroxy-4-oxo-2-phenyl-1-benzopyran-7-yl)oxy]acetic acid ethyl ester], over 50 µM; with `COc1cccc(C=NNC(=O)c2[nH]c(C)c(C(=O)NN=Cc3cccc(OC)c3O)c2C)c1O` [SMR000162187], over 50 µM. With `CN(Cc1ccon1)C(=O)CC1C(=O)NCCN1CC1CCCCC1` (stereo not drawn) [2-[1-(cyclohexylmethyl)-3-oxopiperazin-2-yl]-N-(isoxazol-3-ylmethyl)-N-methylacetamide] the figure was over 50 µM; with `Cc1cccc(OCC(O)CN2CC3(C)CC2CC(C)(C)C3)c1` (stereo not drawn) [SMR000249047], over 50 µM.

In turn, `CC(C)N(Cc1ccccc1)C(S)=NC1CCCCC1` [MLS001033857] had an IC50 of over 50 µM.

`COc1ccc(S(=O)(=O)NCc2c(-c3ccccc3)noc2C)c(OC)c1` had an IC50 of over 50 µM.

On to `CCOc1cc(CO)ccc1OCC(=O)N1CCCCC1` [2-[2-ethoxy-4-(hydroxymethyl)phenoxy]-1-(1-piperidinyl)ethanone], for which the IC50 was over 50 µM. With `CN(Cc1ccccc1)c1nc2c(c(=O)[nH]c(=O)n2C)n1CCCSc1ncccn1` [3-methyl-8-[methyl-(phenylmethyl)amino]-7-(3-pyrimidin-2-ylsulfanylpropyl)purine-2,6-dione] the figure was over 50 µM; with `COc1cc(C2SCC(=O)N2c2c(C)n(C)n(-c3ccccc3)c2=O)ccc1O` (stereo not drawn) [SMR000414946], over 50 µM. In the case of `COc1ccc(-c2n[nH]cc2C2N=C(N)Nc3nc4ccccc4n32)cc1` (stereo not drawn), the IC50 is over 50 µM. Regarding `COc1cccc(C(=O)OCCN2CCOCC2)c1`, the IC50 was over 50 µM. The molecule `Cc1nc2cc(NC(=O)Nc3cccc(F)c3)ccc2n1C` [MLS000708492] registered an IC50 of over 50 µM. For the molecule `COc1cc(C(=O)OCC(C)=O)ccc1OCc1c(C)noc1C` [SMR000377658], the IC50 was over 50 µM.

Molecule `Cc1sc2c(c1C)C(=O)NC(c1cccc(O)c1)N2` (stereo not drawn) [2-(3-hydroxyphenyl)-5,6-dimethyl-2,3-dihydrothieno[2,3-d]pyrimidin-4(1H)-one] returned an IC50 of over 50 µM.

As for `Brc1cccc(CN=Nc2nnn[nH]2)c1` [SMR000279292], the IC50 is over 50 µM. The molecule `COc1ccccc1/N=C/c1nc(-c2ccccc2)oc1OC(C)=O` [SMR000039734] returned an IC50 of 7.75 µM. This lies in the single-digit micromolar range. On to `O=C(c1cc(Cl)nc2ccccc12)N1CCc2ccccc2C1` [SMR000347901], for which the IC50 was over 50 µM.

`CCOC(=O)Cc1csc(NC(=O)CC(C)(C)CC(=O)O)n1` [5-[[4-(2-ethoxy-2-oxidanylidene-ethyl)-1,3-thiazol-2-yl]amino]-3,3-dimethyl-5-oxidanylidene-pentanoic acid] yielded an IC50 of over 50 µM. With `Cc1ccc(NS(=O)(=O)c2ccc(C(=O)OCC(=O)Nc3cc(C)on3)cc2)cc1` [[2-[(5-methyl-1,2-oxazol-3-yl)amino]-2-oxoethyl] 4-[(4-methylphenyl)sulfamoyl]benzoate] the figure was over 50 µM; with `O=[N+]([O-])c1ccc(OCCO)c(P(=O)(c2ccccc2)c2ccccc2)c1` [SMR000420001], over 50 µM. In turn, `N#Cc1ccsc1NC(=O)CN(Cc1ccccc1)Cc1ccccc1` [2-[bis(phenylmethyl)amino]-N-(3-cyano-2-thiophenyl)acetamide] had an IC50 of over 50 µM. In the case of `CCCCCCCc1c(O)nc(SCCN(C)C)[nH]c1=O` [SMR000414668], the IC50 turned out to be 14 µM. In other words, the double-digit micromolar range.

Turning to `CC1(C)C2CCC(C2)C1(C)/N=C1\OC(CCl)CS1` (stereo not drawn) [MLS001012164], the 50% inhibitory concentration (IC50) is over 50 µM. `O=C(Oc1ccc(=O)n(-c2ccccc2)n1)c1cccc(Cl)c1` [(6-oxidanylidene-1-phenyl-pyridazin-3-yl) 3-chloranylbenzoate] had an IC50 of 1.71 µM. This counts as single-digit micromolar. On to `CCOC(=O)c1ccc(NC(=O)Nc2cccc(C)n2)cc1` [MLS000679527], for which the IC50 is over 50 µM. In turn, `COc1cc2c(cc1/C=C/[N+](=O)[O-])OCO2` [MLS000706395] returned an IC50 of over 50 µM.

Consider `NC(=O)NOCc1ccccc1` [phenylmethoxyurea], for which the half-maximal inhibitory concentration (IC50) was over 50 µM. Consider `N#CCCC1CCCC=C1N(Cc1ccccc1)C(=O)C(Cl)Cl` (stereo not drawn) [2,2-bis(chloranyl)-N-[6-(2-cyanoethyl)cyclohexen-1-yl]-N-(phenylmethyl)ethanamide], for which the IC50 is over 50 µM. With `Cc1ccc2c(CN3CCN(Cc4ccc5c(c4)OCO5)CC3)cc(=O)oc2c1C` [4-[[4-(1,3-benzodioxol-5-ylmethyl)-1-piperazinyl]methyl]-7,8-dimethyl-1-benzopyran-2-one] the figure was over 50 µM; with `Cc1onc(-c2ccccc2)c1C(=O)N(Cc1ccco1)Cc1cccs1` [MLS000771400], over 50 µM; with `COCCNCC(=O)Nc1nc(C)cs1` [SMR000287473], over 50 µM.

Molecule `CCCN(CCC)S(=O)(=O)c1ccc(C(=O)NNc2nc(-c3ccccc3)c3cc(Br)ccc3n2)cc1` [4-[[(6-bromo-4-phenylquinazolin-2-yl)amino]carbamoyl]-N,N-dipropylbenzenesulfonamide] showed an IC50 of over 50 µM. In the case of `COc1ccc(C(=O)Nc2ccc(N3CCN(c4ccc(OC)cc4)CC3)c(C#N)c2)cc1` [N-[3-cyano-4-[4-(4-methoxyphenyl)piperazin-1-yl]phenyl]-4-methoxy-benzamide], the IC50 is over 50 µM.

In the case of `CC(C)[C@H](NC(=O)[C@H](CCCNC(=N)N)NC(=O)N[C@@H](Cc1ccccc1)C(=O)O)C(=O)N[C@H](C=O)CCCNC(=N)N` [2-[[[[(2S)-5-(diaminomethylideneamino)-1-[[(2S)-1-[[5-(diaminomethylideneamino)-1-oxopentan-2-yl]amino]-3-methyl-1-oxobutan-2-yl]amino]-1-oxopentan-2-yl]amino]-oxomethyl]amino]-3-phenylpropanoic acid] ({Phe-CO}-Arg-Val-Arg-aldehyde), the IC50 came out at 3.81 µM. With `O=C(NNC1=NCCCCC1)Nc1cccc(Cl)c1` the figure was over 50 µM; with `COc1ccc(NCC(=O)Nc2cc(S(=O)(=O)N3CCOCC3)ccc2N2CCOCC2)c(OC)c1` [SMR000371196], 6.52 µM. For the molecule `O=C(Oc1ccc2c(=O)c(Cl)coc2c1)c1ccncc1` [SMR000014947], the IC50 is 6.2 µM. `CC1=CC(=NNC(=S)Nc2cccnc2)CC(C)(C)C1` [SMR000385739]: the IC50 was over 50 µM. With `CC(C)CNC(=O)Nc1ccc(F)c(Cl)c1` [MLS000679438] the figure was over 50 µM; with `Cc1ccc(CN2C(=O)C(=NNC(=S)Nc3ccccc3F)c3cc(S(=O)(=O)N4CCOCC4)ccc32)cc1` [SMR000314855], over 50 µM; with `Cc1ccccc1C(=O)NC1CCSC1=O` (stereo not drawn) [MLS000709097], over 50 µM. Next, `CC(=O)Nc1ccc(S(=O)(=O)NNC(=O)COc2ccc(Cl)cc2Cl)cc1` [MLS000777409]: over 50 µM. `CC(Cc1ccccc1)=NNC(=O)CNC(=O)c1ccccc1Cl` [2-chloro-N-[2-oxo-2-[2-(1-phenylpropan-2-ylidene)hydrazinyl]ethyl]benzamide] yielded an IC50 of over 50 µM. Regarding `O=C(Nc1nc(-c2ccc(Cl)s2)cs1)c1cccs1` [SMR000065041], the IC50 was determined as 0.364 µM. With `CONC(=N)c1nonc1N` [MLS001049218] the figure was over 50 µM; with `COc1ccc(Cl)cc1NC(=O)Nc1cn(C)nc1C` [SMR000458292], over 50 µM; with `CS(=O)(=O)c1ccc(Cl)c(NC(=O)COC(=O)CNC(=O)c2ccccc2)c1` [2-benzamidoacetic acid [2-(2-chloro-5-methylsulfonylanilino)-2-oxoethyl] ester], over 50 µM.
